Results on two molecules are retold here after patent publication US20210246128A1, “BICYCLE TOPOISOMERASE I INHIBITING COMPOUNDS, PROCESS FOR PREPARATION AND USE THEREOF” (Council of Scientific & Industrial Research, priority 2018, published 2021).

One data set deals with TDP1+/+ MEFs. In words: Cytotoxicity assay, TDP1+/+ MEFs. Type of data set: cell-based. The procedure:
(§1) The percent inhibition of viability for each concentration of compound was calculated with respect to the control and IC50 (μM) values were estimated. Each point corresponds to the mean±S.D of at least three experiments in duplicates. Error bars represent SD (n=3).

The subject of another data set is MCF7 cells. In words: γH2AX assay (immunofluorescence confocal microscopy). Type of data set: cell-based, human. Conditions: after washing out from media. Here is the method:
Quantification of comparative ability of CPT and 18 to form DSBs was quantified after 3 hours and 5 hours by measuring γH2AX intensity per nucleus after treatment and after the removal of 18 or CPT was obtained from immunofluorescence confocal microscopy. […] But CPT-induced γH2AX have a short half-life. […] (T. Furuta. J. Biol. Chem. 2003, 278, 20303-20312).

A further data set deals with Caco-2 cell monolayer. Conditions: cited from earlier work.
The test system of data set [1] is noncancerous human embryonic kidney (HEK293) cells. In words: Cytotoxicity assay, HEK293. Conditions: read-out: IC50 cytotoxicity HEK293; HEK293 (noncancerous).
The next data set can be described thus: Plasma stability assay. It is filed as in vitro ADME. Conditions: pH 7.4, 37° C., 1 μM. The procedure:
The stock solution of 10 mM of test compound in DMSO was prepared and stored at 4° C. 25 μM stock of test compound was prepared in acetonitrile: water by diluting from 10 mM stock (i.e. 2.5 μL of 10 mM stock solution was added to 997.5 μL of acetonitrile: water (50:50). The frozen plasma was thawed at room temperature and centrifuged at 1400×RCF (relative centrifugal force) 4° C., for 15 minutes. Approximately 90% of the clear supernatant fraction was transferred to a separate tube and was used for the assay.
For 0 min samples, plasma was heat inactivated at 56° C. for 45 min. To 72 μL of heat inactivated plasma, 3 μL of 25 μM test compound was added. A 25 μL aliquot of the mixture was taken and crashed with 200 μL of acetonitrile containing internal standard and further processed along with other time points. For other time point samples, final working stock of 1 μM was prepared by diluting in plasma (i.e. 8 μL of 25 μM acetonitrile:water stock was added to 192 μL of plasma). 200 μL of plasma containing the test compound was incubated for 2 hrs at 37° C. in shaker water bath with gentle shaking. 25 μL aliquot of sample at 0, 15, 30, 60 and 120 min was precipitated immediately with 200 μL of acetonitrile containing internal standard and centrifuged at 4000×RCF, 4° C. for 20 minutes. 150 μL of supernatant was diluted with 150 μL of water and analyzed on LC-MS/MS.

The nature of data set [2]: Solubility assay (pH 7.4 pION buffer, UV). It is filed as physicochemical. Conditions: pH 7.4 buffer, 18 hours incubation. The procedure:
5 μL of 20 mM DMSO stock from the stock plate was added to the reaction deep well plate containing 495 μL of pH 7.4 pION buffer (including DMSO control) respectively and the samples were mixed and incubated for 18 hours. The plate was sealed well during the incubation process. The DMSO content in the sample was <1.0%. The concentration in deep well plates was 200 μM. 4 μL of 20 mM stock (including DMSO control) was added to 996 μL of acetonitrile to prepare the working stock plate. 75 μL of working stock was added to 75 μL of blank buffer and read on spectrophotometer as reference plate at 240 nm. At the end of the incubation period, 100 μL of sample from storage plate was vacuum filtered using a filter plate. This step wets the filters and the filtrate was discarded. Another 200 μL of the sample from deep well plate was vacuum filtered in to a new filter collection plate. 75 μL of the filtrate from the filter collection plate was transferred to a UV sample plate. 75 μL of acetonitrile was added to this UV plate. The solution was mixed and the spectrum was read using the UV spectrophotometer at 240 nm. Plates were read on spectramax using SoftMax Pro software version 5.3.

The subject of a further data set is TDP1−/− cells. In words: Cytotoxicity assay, TDP1−/−. The note with it: read-out: IC50 cytotoxicity TDP1−/−. The procedure:
as §1

A short description of data set [3]: Lipophilicity assay (octanol/buffer Log D). The note with it: octanol / sodium phosphate buffer pH 7.4.
Experimental: 1.56 g NaH2PO4.2H2O was dissolved in 0.5 L water in a 1 L beaker. After adjusting pH to 7.4 using NaOH solution, the volume was made up to 1 L. Equal volumes of sodium phosphate buffer (10 mM, pH 7.4) and n-octanol were added to a separation funnel and mixed thoroughly by shaking and inverting the funnel several times. The two layers were allowed to separate for 2 days and then dispensed in two separate glass bottles. 10 mM stock solution was prepared in 100% DMSO and stored at 4° C. 500 μL of organic phase (1-octanol) was added to each well of a 2 mL deep well plate, followed by 500 μL of buffer and 15 μL of test substance was added. The plate was vortexed for 1 hr on a plate shaker at 1200 rpm. After incubation, the samples were allowed to equilibrate for 20 min and then centrifuged at 4000 rpm for 30 min for complete phase separation and analysed by LC-UV.
Log D=Log(area of octanol/area of buffer)
Mean, SD and % CV for each set of triplicates were calculated
In data set [4] the test system is human ovarian adenocarcinoma cell lines (NIH:OVCAR-3). In words: Cytotoxicity assay, NIH:OVCAR-3. The note with it: OVCAR-3, read-out: IC50 cytotoxicity NIH:OVCAR-3.
The test system of a further data set is calf thymus (CT) DNA. Put plainly: Ethidium bromide (EtBr) displacement assay. Type of data set: binding. The note with it: 1 μM EtBr, 5 nM CT DNA, 0-200 μM compound.
The nature of data set [5]: Cytotoxicity assay, HEK293. The note with it: human.
Data set [6] can be described thus: Caco-2 permeability (21 day culture of Caco-2 cell monolayer). Conditions: human; for recovery at 120 min, 10 μM: Caco-2, pH 7.4, Caco-2. It is filed as in vitro ADME. The procedure: 5 mL of 100 mM sodium pyruvate, 5 mL of 10× non-essential amino acids, 5 mL of penstrep were added to 100 mL of heat inactivated foetal bovine serum to 385 mL of DMEM aseptically and mixed thoroughly. One vial of Hank's balanced salt (Sigma-H1387) was dissolved in 900 mL of milli Q water; adjusted the pH to 7.4 and made up the volume to 1000 mL with the same. The solution was filter sterilized and stored at 4° C. Stock solution of test compound (10 mM) was prepared in DMSO. 10 mM stock was diluted with HBSS Buffer to a final concentration of 10 μM.
250 μL of DMEM was added to the basal compartment of 96 well multi-screen Caco-2 plate and seeded 12000 cells/well (0.16×10^6 cells/ml) in all the apical wells required and one well with only media as blank without cells, placed the Caco-2 plate in CO2 incubator at 37° C. for proliferation of cells.
On the day of assay, medium was removed and washed twice with HBSS Buffer and incubated with HBSS buffer for 30 min in an incubator and wells with TEER values >230 ohm·cm^2 were selected for the incubation. 75 μL of test compound was added to apical wells and 250 μL of HBSS buffer with 2% BSA was added to basal wells. 25 μL of basal samples was collected at 120 min and processed as stated below.
250 μL of test compound was added to basal wells and 75 μL of HBSS buffer with 2% BSA was added to apical wells. 25 μL of apical samples was collected at 120 min and processed as stated below.
Single point calibration curve in HBSS buffer with 2% BSA was used. Donor samples were diluted 1:1 with HBSS containing 2% BSA and receiver samples were diluted with 1.1 HBSS buffer and precipitated with 200 μL of acetonitrile containing internal standard and vortexed for 5 min @ 1000 rpm, centrifuged at 4000 rpm for 10 min. Finally 100 μL of supernatant was diluted with 200 μL of water and submitted for LC-MS/MS analysis.
A general note: Caco-2 monolayers are a common model of the intestinal barrier.

The test system of data set [7] is human colon carcinoma cell lines (HCT116). Put plainly: Cytotoxicity assay, HCT116. Conditions: HCT-116, read-out: IC50 cytotoxicity HCT116.

SMILES strings stand for the structures. Like-named read-outs stand apart in the source and are kept apart here.

Take `CC[C@@]1(O)C(=O)OCc2c1cc1n(c2=O)Cc2cc3ccccc3nc2-1` [Camptothecin, reference compound]: the IC50 in the data set on TDP1+/+ MEFs was determined as 2800 ± 470 nM; in data set [1] it was 8750 ± 630 nM; in the data set with TDP1−/− cells (TDP1−/−), 1570 ± 210 nM. For the same molecule, the “persistence of γH2AX foci / DSBs after removal of drug” value with MCF7 cells is given as “faster disappearance of γH2AX foci”. The “Papp Apical to Basal” value with Caco-2 cell monolayer is reported as 10.5 10^−6 cm/sec. For the same molecule, the “Papp Basal to Apical” value in the data set on Caco-2 cell monolayer was 35.8 10^−6 cm/sec. Further, the “Mean % remaining at 2 hrs in human Plasma” value in “Plasma stability assay” was determined as 15.70%. For the same molecule, the “Avg. Solubility (μg/mL) at pH 7.4” value in data set [2] came out at 2.5 μg/mL.

As for `COc1ccc(-c2ccc3ncc(-c4nnco4)c(NCCCn4ccnc4)c3c2)cc1` [Compound 18, N-(3-(1H-imidazol-1-yl)propyl)-6-(4-methoxyphenyl)-3-(1,3,4-oxadiazol-2-yl)quinolin-4-amine], the “Log D @ pH 7.40 Mean” value in data set [3] was determined as 2.48. The IC50 is 2350 nM in data set [4], 8340 nM in data set [5], 2340 nM in [7] and 1020 nM with TDP1−/− cells. Besides, the “persistence of γH2AX foci / DSBs after removal of drug” value in the data set on MCF7 cells is “persistent and less reversible DNA double-strand breaks (DSBs)”. Besides, the “displacement of bound EtBr (DNA intercalation)” value with calf thymus (CT) DNA is “no displacement of fluorophore even at high concentration (200 μM)”. In addition, the “Mean % remaining at 2 hrs in human Plasma” value in “Plasma stability assay” came to 93.34%. Also, the recovery at 120 min, 10 μM in [6] (read-out: A to B % Recovery) came out at 33.2%; in data set [6] (read-out: B to A % Recovery), 44.2%. Also, in data set [6] (pH 7.4, Caco-2, 10 μM, 120 min, read-out: Papp Apical to Basal), the Papp A→B at 120 min, 10 μM is 7.42 ×10⁻⁶ cm/s. In data set [6] (pH 7.4, Caco-2, 10 μM, 120 min, read-out: Papp Basal to Apical), the Papp B→A at 120 min, 10 μM is 11.6 ×10⁻⁶ cm/s.
